Source: US20250215012A1, “IKZF2 DEGRADERS AND USES THEREOF” (REGENTS OF THE UNIVERSITY OF MICHIGAN, priority 2022, published 2025)

Target: IKZF2 (Homo sapiens (Human), UniProt Q96SW2+Q9UKS7)
Assay: IKZF2 HiBiT Assay (Jurkat-IKZF2-HiBiT cell line)
Assay type: cell-based
Details: Jurkat-IKZF2-HiBiT cells, 24 hours; for DC50: read-out: HiBit assay degradation analysis DC50; for Dmax: read-out: HiBit assay degradation analysis Dmax
Procedure, shortened: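 Jurkat cells carrying HiBiT-tagged IKZF2 were exposed to serially diluted compound for 24 h at 37 °C. Remaining IKZF2 was measured by Nano-Glo HiBiT lytic luminescence after 10-20 min at room temperature. Signal was normalized to DMSO, and IC50 came from a four-parameter variable-slope fit.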

Chain of IKZF2 (Q9UKS7 whole entry): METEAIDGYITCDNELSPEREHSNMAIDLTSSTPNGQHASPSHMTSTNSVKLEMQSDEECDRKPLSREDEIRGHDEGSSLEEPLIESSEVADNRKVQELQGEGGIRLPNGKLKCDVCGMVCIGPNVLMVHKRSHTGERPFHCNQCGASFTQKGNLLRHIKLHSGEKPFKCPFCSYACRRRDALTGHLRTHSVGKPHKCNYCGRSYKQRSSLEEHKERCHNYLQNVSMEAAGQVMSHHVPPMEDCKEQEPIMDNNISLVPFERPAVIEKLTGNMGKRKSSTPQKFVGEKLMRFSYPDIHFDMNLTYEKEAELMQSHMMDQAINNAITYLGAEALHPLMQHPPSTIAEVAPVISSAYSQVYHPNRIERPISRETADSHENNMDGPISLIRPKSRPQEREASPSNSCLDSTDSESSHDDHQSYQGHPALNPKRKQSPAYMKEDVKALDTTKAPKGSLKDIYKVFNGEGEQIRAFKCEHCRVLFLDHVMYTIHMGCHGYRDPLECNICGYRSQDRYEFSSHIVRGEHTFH
Chain of IKZF2 (Q96SW2 whole entry): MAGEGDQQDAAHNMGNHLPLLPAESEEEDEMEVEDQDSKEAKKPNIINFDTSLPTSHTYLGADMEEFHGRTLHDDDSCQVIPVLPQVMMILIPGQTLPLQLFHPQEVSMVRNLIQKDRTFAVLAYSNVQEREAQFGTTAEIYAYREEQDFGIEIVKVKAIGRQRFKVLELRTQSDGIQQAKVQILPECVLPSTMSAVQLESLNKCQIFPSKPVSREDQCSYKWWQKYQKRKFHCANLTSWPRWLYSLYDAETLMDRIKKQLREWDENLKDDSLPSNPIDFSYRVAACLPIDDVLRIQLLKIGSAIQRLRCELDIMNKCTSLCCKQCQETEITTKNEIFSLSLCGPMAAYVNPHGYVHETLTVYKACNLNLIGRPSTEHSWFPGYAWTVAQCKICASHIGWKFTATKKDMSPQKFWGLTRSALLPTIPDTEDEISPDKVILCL
Chain of IKZF2 (Q16531 whole entry partner): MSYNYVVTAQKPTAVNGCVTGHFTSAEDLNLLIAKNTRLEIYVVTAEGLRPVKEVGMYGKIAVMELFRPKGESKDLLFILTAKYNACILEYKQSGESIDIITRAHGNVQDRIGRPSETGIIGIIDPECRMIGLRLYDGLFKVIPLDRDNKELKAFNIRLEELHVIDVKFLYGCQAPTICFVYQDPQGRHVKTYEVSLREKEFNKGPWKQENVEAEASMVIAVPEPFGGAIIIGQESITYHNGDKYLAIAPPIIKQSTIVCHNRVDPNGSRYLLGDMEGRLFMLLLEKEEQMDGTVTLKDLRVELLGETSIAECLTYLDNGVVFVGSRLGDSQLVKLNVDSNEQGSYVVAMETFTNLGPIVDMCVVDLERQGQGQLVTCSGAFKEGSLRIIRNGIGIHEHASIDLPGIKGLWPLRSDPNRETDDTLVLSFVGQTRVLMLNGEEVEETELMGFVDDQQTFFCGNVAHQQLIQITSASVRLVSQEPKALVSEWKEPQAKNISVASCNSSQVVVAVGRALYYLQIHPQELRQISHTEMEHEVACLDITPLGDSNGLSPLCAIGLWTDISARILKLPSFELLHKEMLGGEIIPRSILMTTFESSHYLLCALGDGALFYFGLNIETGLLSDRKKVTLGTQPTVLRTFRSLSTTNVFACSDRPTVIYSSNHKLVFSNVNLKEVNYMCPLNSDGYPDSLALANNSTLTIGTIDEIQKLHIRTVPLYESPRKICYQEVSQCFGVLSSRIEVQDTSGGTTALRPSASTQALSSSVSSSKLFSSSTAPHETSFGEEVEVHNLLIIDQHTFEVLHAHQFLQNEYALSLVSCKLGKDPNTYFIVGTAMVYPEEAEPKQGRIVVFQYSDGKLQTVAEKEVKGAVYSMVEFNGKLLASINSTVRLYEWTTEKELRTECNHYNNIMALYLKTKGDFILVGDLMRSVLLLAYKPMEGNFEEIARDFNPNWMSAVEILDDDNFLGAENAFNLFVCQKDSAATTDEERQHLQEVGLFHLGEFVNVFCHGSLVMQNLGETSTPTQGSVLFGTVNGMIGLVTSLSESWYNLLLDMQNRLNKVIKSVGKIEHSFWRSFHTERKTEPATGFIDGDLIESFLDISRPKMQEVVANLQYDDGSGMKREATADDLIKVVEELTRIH

| SMILES | DC50 | Dmax |
| --- | --- | --- |
| O=C1CCC(N2Cc3c(ccc4c3OCC43CCN(Cc4ccc(C5CC5)cc4)CC3)C2=O)C(=O)N1 (centres unmarked) [Compound A205, 3-(1′-(4-cyclopropylbenzyl)-6-oxo-6,8-dihydro-2H,7H-spiro[furo[2,3-e]isoindole-3,4′-piperidin]-7-yl)piperidine-2,6-dione] | 200 to 500 nM | 40 to 60% |
| O=C1CCC(N2Cc3c(ccc4c3OCC43CCN(Cc4cccc5c4CCCO5)CC3)C2=O)C(=O)N1 (centres unmarked) [Compound A218, 3-(1′-(chroman-5-ylmethyl)-6-oxo-6,8-dihydro-2H,7H-spiro[furo[2,3-e]isoindole-3,4′-piperidin]-7-yl)piperidine-2,6-dione] | < 50 nM | 60 to 80% |
| O=C1CCC(N2Cc3c(ccc4c3OCC43CCN(CC4CCCC4)CC3)C2=O)C(=O)N1 (centres unmarked) [Compound A18, 3-(1′-(cyclopentylmethyl)-6-oxo-6,8-dihydro-2H,7H-spiro[furo[2,3-e]isoindole-3,4′-piperidin]-7-yl)piperidine-2,6-dione] | > 500 nM | < 40% |
| O=C1CCC(N2Cc3c(ccc4c3OCC43CCN(CC4(c5ccccc5)CCC4)CC3)C2=O)C(=O)N1 (centres unmarked) [Compound A334, 3-(6-oxo-1′-((1-phenylcyclobutyl)methyl)-6,8-dihydro-2H,7H-spiro[furo[2,3-e]isoindole-3,4′-piperidin]-7-yl)piperidine-2,6-dione] | > 500 nM | 40 to 60% |
| O=C1CC[C@H](N2Cc3c(ccc4c3OCC43CCN(Cc4cnn(S(=O)(=O)c5ccc(F)cc5)c4)CC3)C2=O)C(=O)N1 [Compound A354, (S)-3-(1′-((1-((4-fluorophenyl)sulfonyl)-1H-pyrazol-4-yl)methyl)-6-oxo-6,8-dihydro-2H,7H-spiro[furo[2,3-e]isoindole-3,4′-piperidin]-7-yl)piperidine-2,6-dione] |  | 40 to 60% |
| O=C1CCC(N2Cc3c(ccc4c3OCC43CCN(Cc4ccc5scnc5c4)CC3)C2=O)C(=O)N1 (centres unmarked) [Compound A54, 3-(1′-(benzo[d]thiazol-5-ylmethyl)-6-oxo-6,8-dihydro-2H,7H-spiro[furo[2,3-e]isoindole-3,4′-piperidin]-7-yl)piperidine-2,6-dione] | 50 to 200 nM | 40 to 60% |
| O=C1CCC(N2Cc3c(ccc4c3OCC43CCN(Cc4ccc(-c5ccccc5)cc4)CC3)C2=O)C(=O)N1 (centres unmarked) [Compound A25, 3-(1′-([1,1′-biphenyl]-4-ylmethyl)-6-oxo-6,8-dihydro-2H,7H-spiro[furo[2,3-e]isoindole-3,4′-piperidin]-7-yl)piperidine-2,6-dione] | > 500 nM | 40 to 60% |
| O=C1CCC(N2Cc3c(ccc4c3OCC43CCN(Cc4ccccc4-n4cccn4)CC3)C2=O)C(=O)N1 (centres unmarked) [Compound A156, 3-(1′-(2-(1H-pyrazol-1-yl)benzyl)-6-oxo-6,8-dihydro-2H,7H-spiro[furo[2,3-e]isoindole-3,4′-piperidin]-7-yl)piperidine-2,6-dione] | > 500 nM | < 40% |
| O=C1CCC(N2Cc3c(ccc4c3OCC43CCN(Cc4ccc5c(c4)OC(F)(F)O5)CC3)C2=O)C(=O)N1 (centres unmarked) [Compound A193, 3-(1′-((2,2-difluorobenzo[d][1,3]dioxol-5-yl)methyl)-6-oxo-6,8-dihydro-2H,7H-spiro[furo[2,3-e]isoindole-3,4′-piperidin]-7-yl)piperidine-2,6-dione] | > 500 nM | < 40% |
| O=C1CCC(N2Cc3c(ccc4c3OCC43CCN(Cc4coc(-c5ccccc5)n4)CC3)C2=O)C(=O)N1 (centres unmarked) [Compound A83, 3-(6-oxo-1′-((2-phenyloxazol-4-yl)methyl)-6,8-dihydro-2H,7H-spiro[furo[2,3-e]isoindole-3,4′-piperidin]-7-yl)piperidine-2,6-dione] | > 500 nM | < 40% |
| O=C1CCC(N2Cc3c(ccc4c3OCC43CCN(Cc4ccc5oc(=O)[nH]c5c4)CC3)C2=O)C(=O)N1 (centres unmarked) [Compound A165, 3-(6-oxo-1′-((2-oxo-2,3-dihydrobenzo[d]oxazol-5-yl)methyl)-6,8-dihydro-2H,7H-spiro[furo[2,3-e]isoindole-3,4′-piperidin]-7-yl)piperidine-2,6-dione] | 50 to 200 nM | 60 to 80% |
| O=C1CC[C@H](N2Cc3c(ccc4c3OCC43CCN(Cc4cccc(-c5cnn(CCF)c5)c4)CC3)C2=O)C(=O)N1 [Compound A293, (S)-3-(1′-(3-(1-(2-fluoroethyl)-1H-pyrazol-4-yl)benzyl)-6-oxo-6,8-dihydro-2H,7H-spiro[furo[2,3-e]isoindole-3,4′-piperidin]-7-yl)piperidine-2,6-dione] | < 50 nM | 60 to 80% |
| CN(C(=O)c1cccc(CN2CCC3(CC2)COc2c3ccc3c2CN(C2CCC(=O)NC2=O)C3=O)c1)c1cccc(F)c1 (centres unmarked) [Compound A166, 3-((7-(2,6-dioxopiperidin-3-yl)-6-oxo-7,8-dihydro-2H,6H-spiro[furo[2,3-e]isoindole-3,4′-piperidin]-1′-yl)methyl)-N-(3-fluorophenyl)-N-methylbenzamide] | 50 to 200 nM | 40 to 60% |
| O=C1CCC(N2Cc3c(ccc4c3OCC43CCN(Cc4cccc(-c5ccccn5)c4)CC3)C2=O)C(=O)N1 (centres unmarked) [Compound A103, 3-(6-oxo-1′-(3-(pyridin-2-yl)benzyl)-6,8-dihydro-2H,7H-spiro[furo[2,3-e]isoindole-3,4′-piperidin]-7-yl)piperidine-2,6-dione] | 200 to 500 nM | 40 to 60% |
| O=C1CCC(N2Cc3c(ccc4c3OCC43CCN(Cc4cccc(-c5cnn(C6CCOCC6)c5)c4)CC3)C2=O)C(=O)N1 (centres unmarked) [Compound A147, 3-(6-oxo-1′-(3-(1-(tetrahydro-2H-pyran-4-yl)-1H-pyrazol-4-yl)benzyl)-6,8-dihydro-2H,7H-spiro[furo[2,3-e]isoindole-3,4′-piperidin]-7-yl)piperidine-2,6-dione] | < 50 nM | 60 to 80% |
| CN1CC2(CCN(Cc3cccc(-c4cnn(C)c4)c3)CC2)c2ccc3c(c21)CN(C1CCC(=O)NC1=O)C3=O (centres unmarked) [Compound A308, 3-(1′-methyl-1-(3-(1-methyl-1H-pyrazol-4-yl)benzyl)-6′-oxo-1′,2′,6′,8′-tetrahydro-7′H-spiro[piperidine-4,3′-pyrrolo[3,4-g]indol]-7′-yl)piperidine-2,6-dione] | > 500 nM | < 40% |
| O=C1CCC(N2Cc3c(ccc4c3OCC43CCN(CC4CCC(F)(F)CC4)CC3)C2=O)C(=O)N1 (centres unmarked) [Compound A17, 3-(1′-((4,4-difluorocyclohexyl)methyl)-6-oxo-6,8-dihydro-2H,7H-spiro[furo[2,3-e]isoindole-3,4′-piperidin]-7-yl)piperidine-2,6-dione] | > 500 nM | 40 to 60% |
| O=C1CC[C@H](N2Cc3c(ccc4c3OCC43CCN(C[C@H]4C[C@@H](Oc5ccc(F)cc5)C4)CC3)C2=O)C(=O)N1 [Compound A358, (S)-3-(1′-(((1s,3R)-3-(4-fluorophenoxy)cyclobutyl)methyl)-6-oxo-6,8-dihydro-2H,7H-spiro[furo[2,3-e]isoindole-3,4′-piperidin]-7-yl)piperidine-2,6-dione] | > 500 nM | 40 to 60% |
| O=C1CCC(N2Cc3c(ccc4c3OCC43CCN(C[C@H]4C[C@@H]4c4ccccc4)CC3)C2=O)C(=O)N1 (stereo partly drawn) [Compound A332, 3-(6-oxo-1′-(((1S,2S)-2-phenylcyclopropyl)methyl)-6,8-dihydro-2H,7H-spiro[furo[2,3-e]isoindole-3,4′-piperidin]-7-yl)piperidine-2,6-dione] | > 500 nM |  |
| O=C1CCC(N2Cc3c(ccc4c3OCC43CCN(Cc4cccc(OC(F)F)c4)CC3)C2=O)C(=O)N1 (centres unmarked) [Compound A90, 3-(1′-(3-(difluoromethoxy)benzyl)-6-oxo-6,8-dihydro-2H,7H-spiro[furo[2,3-e]isoindole-3,4′-piperidin]-7-yl)piperidine-2,6-dione] | > 500 nM | < 40% |
| COc1cc(CN2CCC3(CC2)COc2c3ccc3c2CN([C@H]2CCC(=O)NC2=O)C3=O)cc(-c2cnn(C)c2)c1 [Compound A280, (S)-3-(1′-(3-methoxy-5-(1-methyl-1H-pyrazol-4-yl)benzyl)-6-oxo-6,8-dihydro-2H,7H-spiro[furo[2,3-e]isoindole-3,4′-piperidin]-7-yl)piperidine-2,6-dione] | < 50 nM | > 80% |
| N#CCc1ccc(CN2CCC3(CC2)COc2c3ccc3c2CN(C2CCC(=O)NC2=O)C3=O)cc1 (centres unmarked) [Compound A196, 2-(4-((7-(2,6-dioxopiperidin-3-yl)-6-oxo-7,8-dihydro-2H,6H-spiro[furo[2,3-e]isoindole-3,4′-piperidin]-1′-yl)methyl)phenyl)acetonitrile] | 50 to 200 nM | 60 to 80% |
| O=C1CCC(N2Cc3c(ccc4c3OCC43CCN(Cc4cccc5c4OCC5)CC3)C2=O)C(=O)N1 (centres unmarked) [Compound A224, 3-(1′-((2,3-dihydrobenzofuran-7-yl)methyl)-6-oxo-6,8-dihydro-2H,7H-spiro[furo[2,3-e]isoindole-3,4′-piperidin]-7-yl)piperidine-2,6-dione] | 200 to 500 nM | 40 to 60% |
| O=C1CCC(N2Cc3c(ccc4c3OCC43CCN(Cc4cccc(C5CC5)c4)CC3)C2=O)C(=O)N1 (centres unmarked) [Compound A204, 3-(1′-(3-cyclopropylbenzyl)-6-oxo-6,8-dihydro-2H,7H-spiro[furo[2,3-e]isoindole-3,4′-piperidin]-7-yl)piperidine-2,6-dione] | > 500 nM | 40 to 60% |
| O=C1CCC(N2Cc3c(ccc4c3OCC43CCN(Cc4ccc5nccn5c4)CC3)C2=O)C(=O)N1 (centres unmarked) [Compound A79] | > 500 nM | < 40% |
| O=C1CCC(N2Cc3c(ccc4c3OCC43CCN(Cc4ccc5nn(CCO)cc5c4)CC3)C2=O)C(=O)N1 (centres unmarked) [Compound A345, 3-(1′-((2-(2-hydroxyethyl)-2H-indazol-5-yl)methyl)-6-oxo-6,8-dihydro-2H,7H-spiro [furo[2,3-e]isoindole-3,4′-piperidin]-7-yl)piperidine-2,6-dione] | > 500 nM | < 40% |
